Data set [1] has as its system trypsin. As to the kind of experiment: Protease susceptibility assay. Type of data set: in vitro ADME. Conditions: 80 μM peptide, pH 8.2, room temperature, up to 60 min, analytical HPLC.
In data set [2] the test system is trypsin. Conditions: cited from earlier work.

Where a SMILES comes first, the peptide text is derived from it. Bridges are numbered along the chain shown (N, C = ends).

For the compound `CC[C@H](C)[C@H](NC(=O)[C@H](CCC(=O)O)NC(=O)[C@H](CS)NC(=O)[C@@H](NC(=O)CNC(=O)[C@H](CO)NC(=O)[C@H](CC(C)C)NC(=O)[C@H](CO)NC(=O)[C@H](CCC(=O)O)NC(=O)[C@H](CCCNC(=N)N)NC(=O)[C@@H](NC(=O)[C@H](C)NC(=O)[C@H](CS)NC(=O)[C@H](CCCNC(=N)N)NC(=O)CNC(=O)[C@@H](NC(=O)[C@H](CCCNC(=N)N)NC(=O)[C@H](CS)NC(=O)[C@H](Cc1ccc(O)cc1)NC(=O)[C@H](CS)NC(=O)[C@@H](NC(=O)[C@H](C)N)[C@@H](C)O)[C@@H](C)O)[C@@H](C)O)C(C)C)C(=O)N[C@@H](CO)C(=O)NCC(=O)N[C@@H](CCCNC(=N)N)C(=O)N[C@@H](CC(C)C)C(=O)N[C@@H](Cc1ccc(O)cc1)C(=O)N[C@@H](CCCNC(=N)N)C(=O)N[C@@H](CC(C)C)C(=O)N[C@@H](CS)C(=O)N[C@@H](CS)C(=O)N[C@@H](CCCNC(=N)N)C(=O)O` [HD5red] (H-ATCYCRTGRCATRESLSGVCEISGRLYRLCCR-OH), the “susceptibility to trypsin” value in the data set on trypsin [1] is “rapid proteolytic cleavage”.

With `CC[C@H](C)[C@@H]1NC(=O)[C@H](CCC(=O)O)NC(=O)[C@@H]2CSSC[C@@H]3NC(=O)[C@H](Cc4ccc(O)cc4)NC(=O)[C@@H](NC(=O)[C@@H](NC(=O)[C@H](C)N)[C@@H](C)O)CSSC[C@@H](C(=O)N[C@@H](CCCNC(=N)N)C(=O)O)NC(=O)[C@H](CSSC[C@H](NC(=O)[C@H](CCCNC(=N)N)NC(=O)CNC(=O)[C@H]([C@@H](C)O)NC(=O)[C@H](CCCNC(=N)N)NC3=O)C(=O)N[C@@H](C)C(=O)N[C@@H]([C@@H](C)O)C(=O)N[C@@H](CCCNC(=N)N)C(=O)N[C@@H](CCC(=O)O)C(=O)N[C@@H](CO)C(=O)N[C@@H](CC(C)C)C(=O)N[C@@H](CO)C(=O)NCC(=O)N[C@@H](C(C)C)C(=O)N2)NC(=O)[C@H](CC(C)C)NC(=O)[C@H](CCCNC(=N)N)NC(=O)[C@H](Cc2ccc(O)cc2)NC(=O)[C@H](CC(C)C)NC(=O)[C@H](CCCNC(=N)N)NC(=O)CNC(=O)[C@H](CO)NC1=O` [HD5ox] (H-ATCYCRTGRCATRESLSGVCEISGRLYRLCCR-OH; disulfide 3-31, 5-20, 10-30), in the data set on trypsin [1], the “susceptibility to trypsin” value was “not accepted as a substrate”. Besides, in the data set with trypsin [2], the “susceptibility to trypsin, literature” value is given as “very poor substrate”.

These data come from article PMC3179267 (Biochemistry, 2011).
